For data set [1] the following is noted: cited from earlier work.
Data set [2] is described as follows: Chlorinated DNAPL dissolution in control sample without cosolvent-surfactant. The data set is classed as physicochemical. Conditions: in presence of DNAPL, no Citrus Burst-3, 50 g/L NaCl, 25° C., 48 hours. An excerpt:
A chlorinated solvent DNAPL was obtained from a site consisting of chlorinated solvents and chlorinated semi-volatile compounds. Composition of the chlorinated solvent DNAPL is presented based on determinations using USEPA Methods 8260 and 8270. An aliquot of the DNAPL was mixed with a suitable quantity of deionized water to determine the equilibrium solubility of the individual compounds in the presence of the DNAPL.
The data collected under the experimentation conditions presented in Table 2 were obtained at 25° C. with 60 rpm shaker table mixing for 48 hours. After the shaker was shut off, the samples sat quietly for 5 minutes before the supernatant was analyzed. DNAPLmax represents the maximum concentration of DNAPL that may dissolve, given the mass of DNAPL and the volume of water.
Carbon tetrachloride and tetrachloroethylene comprised more than 87 percent of the DNAPL. Being a saturated compound, carbon tetrachloride is generally a pervasive and difficult to degrade compound once introduced to the subsurface. […] After 48 hours of slowly mixing the DNAPL and water mixtures, the samples were allowed to sit for 5 minutes and then samples of the solubilized fraction of the mixture were collected and analyzed for VOCs using USEPA Method 8260. Samples from experiment number 1, 3, 5, 7 and 8 (control) were analyzed. […]

Regarding `ClC(Cl)(Cl)Cl` [Carbon Tetrachloride (CTC), Carbon Tetrachloride], the “Pure Compound Aqueous Solubility” value in data set [1] was 129 µg/mL. For the same molecule, in data set [2], the “Observed Solubility in Control Sample” value was found to be 100 µg/mL.

As to `Clc1c(Cl)c(Cl)c2c(Cl)c(Cl)c(Cl)c(Cl)c2c1Cl` [Octachloronaphthalene (OCN), Octachloronaphthalene], the “Pure Compound Aqueous Solubility” value in data set [1] is reported as “insoluble”.

These data come from US7976241B2, “Soil remediation method and composition” (priority 2006, dated 2011).
